Source: publication PMC8429728, “TNK1 is a ubiquitin-binding and 14-3-3-regulated kinase that can be targeted to block tumor growth” (Nature Communications, 2021)
Read-outs that look alike come from different tables or passages of the source.

Tests used:
Test in all cases: biochemical
Design in all cases: Reaction Biology 371-kinase panel at Km ATP, per cent enzyme activity relative to DMSO, single dose in duplicate
MAK = MAK (Homo sapiens, UniProt P20794); conditions: duplicate measurements, Km ATP
Outline: (§1)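 Activity of each kinase, normalised to DMSO-treated controls, served as the read-out. The inhibitor was tested at 300 nM against 371 kinases in vitro. Curves fitted by variable-slope sigmoidal dose-response, constrained to a bottom of 0, gave IC50.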

PKN1/PRK1 = PKN1/PRK1 (Homo sapiens, UniProt Q16512); conditions: duplicate measurements, Km ATP
Outline: as §1

MYO3A = MYO3A (Homo sapiens, UniProt Q8NEV4); conditions: duplicate measurements, Km ATP
Outline: as §1

FER = FER (Homo sapiens, UniProt P16591); conditions: duplicate measurements, Km ATP
Outline: as §1

EPHB1 = EPHB1 (Homo sapiens, UniProt P54762); conditions: duplicate measurements, Km ATP
Outline: as §1

DYRK3 = DYRK3 (Homo sapiens, UniProt O43781); conditions: duplicate measurements, Km ATP
Outline: as §1

NEK11 = NEK11 (Homo sapiens, UniProt Q8NG66); conditions: duplicate measurements, Km ATP
Outline: as §1

GSK3a = GSK3a (Homo sapiens, UniProt P49840); conditions: duplicate measurements, Km ATP
Outline: as §1

WNK3 = WNK3 (Homo sapiens, UniProt Q9BYP7); conditions: duplicate measurements, Km ATP
Outline: as §1

CDK6/cyclin D1 = CDK6/cyclin D1 (Homo sapiens, UniProt Q00534); conditions: duplicate measurements, Km ATP
Outline: as §1

STK22D/TSSK1 = target: T1, STK22D/TSSK1 (Homo sapiens, UniProt Q9BXA7); conditions: duplicate measurements, Km ATP
T1 construct: gene TSSK1B
Outline: as §1

BRSK1 = BRSK1 (Homo sapiens, UniProt Q8TDC3); conditions: duplicate measurements, Km ATP
Outline: as §1

EPHA3 = EPHA3 (Homo sapiens, UniProt P29320); conditions: duplicate measurements, Km ATP
Outline: as §1

MARK3 = MARK3 (Homo sapiens, UniProt P27448); conditions: duplicate measurements, Km ATP
Outline: as §1

MAPKAPK3 = MAPKAPK3 (Homo sapiens, UniProt Q16644); conditions: duplicate measurements, Km ATP
Outline: as §1

CDK2/cyclin A = CDK2/cyclin A (Homo sapiens, UniProt P24941); conditions: duplicate measurements, Km ATP
Outline: as §1

RAF1 = RAF1 (Homo sapiens, UniProt P04049); conditions: duplicate measurements, Km ATP
Outline: as §1

NEK1 = NEK1 (Homo sapiens, UniProt Q96PY6); conditions: duplicate measurements, Km ATP
Outline: as §1

NEK9 = NEK9 (Homo sapiens, UniProt Q8TD19); conditions: duplicate measurements, Km ATP
Outline: as §1

AKT1 = AKT1 (Homo sapiens, UniProt P31749); conditions: duplicate measurements, Km ATP; read-out: % Enzyme Activity (relative to DMSO controls) / TP-0005801 (0.3µM) / Data 1
Outline: as §1

[1] = read-out: % Enzyme Activity (relative to DMSO controls) / TP-0005801 (0.3µM) / Data 1
[2] = read-out: % Enzyme Activity (relative to DMSO controls) / TP-0005801 (0.3µM) / Data 2

MARK3, sequence (P27448 whole entry): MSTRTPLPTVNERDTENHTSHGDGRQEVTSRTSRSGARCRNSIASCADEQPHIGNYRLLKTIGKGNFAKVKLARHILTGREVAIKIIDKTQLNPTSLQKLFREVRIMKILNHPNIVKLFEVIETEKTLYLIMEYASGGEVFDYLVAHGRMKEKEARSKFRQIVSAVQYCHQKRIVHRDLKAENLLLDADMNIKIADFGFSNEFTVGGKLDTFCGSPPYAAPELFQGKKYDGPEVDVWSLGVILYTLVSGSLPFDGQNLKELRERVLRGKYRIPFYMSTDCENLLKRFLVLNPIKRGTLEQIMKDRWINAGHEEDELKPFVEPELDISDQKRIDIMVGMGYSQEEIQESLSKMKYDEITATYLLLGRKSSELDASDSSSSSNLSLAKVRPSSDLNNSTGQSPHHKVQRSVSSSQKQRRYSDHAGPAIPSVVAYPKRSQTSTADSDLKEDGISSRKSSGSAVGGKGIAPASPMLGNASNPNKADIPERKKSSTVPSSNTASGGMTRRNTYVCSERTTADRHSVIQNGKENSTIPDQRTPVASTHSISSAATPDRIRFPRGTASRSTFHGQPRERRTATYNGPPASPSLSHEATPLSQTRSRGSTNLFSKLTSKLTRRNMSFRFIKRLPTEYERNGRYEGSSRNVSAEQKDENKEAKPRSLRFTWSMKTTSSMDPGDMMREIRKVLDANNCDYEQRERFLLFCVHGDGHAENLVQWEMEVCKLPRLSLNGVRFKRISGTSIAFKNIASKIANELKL
NEK1, sequence (Q96PY6 whole entry): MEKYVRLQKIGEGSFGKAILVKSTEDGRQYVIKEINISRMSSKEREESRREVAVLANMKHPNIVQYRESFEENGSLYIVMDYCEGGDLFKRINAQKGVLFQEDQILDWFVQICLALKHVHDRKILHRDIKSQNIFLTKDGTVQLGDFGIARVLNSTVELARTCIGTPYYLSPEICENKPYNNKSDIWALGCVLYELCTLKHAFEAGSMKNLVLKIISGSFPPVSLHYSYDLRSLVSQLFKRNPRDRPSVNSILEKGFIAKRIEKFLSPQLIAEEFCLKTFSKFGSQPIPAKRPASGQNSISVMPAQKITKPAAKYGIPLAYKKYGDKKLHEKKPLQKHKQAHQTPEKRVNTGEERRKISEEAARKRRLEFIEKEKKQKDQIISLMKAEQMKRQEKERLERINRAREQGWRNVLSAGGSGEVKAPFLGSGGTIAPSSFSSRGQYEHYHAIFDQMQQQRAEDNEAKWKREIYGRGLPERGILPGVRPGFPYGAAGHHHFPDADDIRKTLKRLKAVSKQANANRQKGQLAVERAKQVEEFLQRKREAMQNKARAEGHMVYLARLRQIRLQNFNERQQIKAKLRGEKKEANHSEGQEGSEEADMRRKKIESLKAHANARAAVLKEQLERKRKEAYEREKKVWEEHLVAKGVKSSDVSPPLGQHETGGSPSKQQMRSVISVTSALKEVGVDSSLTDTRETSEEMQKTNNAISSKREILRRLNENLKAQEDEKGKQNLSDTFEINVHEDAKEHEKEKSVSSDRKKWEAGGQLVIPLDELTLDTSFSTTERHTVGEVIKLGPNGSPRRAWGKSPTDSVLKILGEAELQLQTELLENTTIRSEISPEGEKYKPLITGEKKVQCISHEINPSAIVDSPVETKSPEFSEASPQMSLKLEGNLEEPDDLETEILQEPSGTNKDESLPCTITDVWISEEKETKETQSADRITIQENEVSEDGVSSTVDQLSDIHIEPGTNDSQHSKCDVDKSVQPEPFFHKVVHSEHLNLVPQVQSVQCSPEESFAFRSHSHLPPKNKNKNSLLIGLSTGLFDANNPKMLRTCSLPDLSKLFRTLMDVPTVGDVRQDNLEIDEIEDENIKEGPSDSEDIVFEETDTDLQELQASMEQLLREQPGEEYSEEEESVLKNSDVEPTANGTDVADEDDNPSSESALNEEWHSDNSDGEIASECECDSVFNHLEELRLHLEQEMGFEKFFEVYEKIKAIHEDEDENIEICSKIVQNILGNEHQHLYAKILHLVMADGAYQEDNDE
EPHA3, sequence (P29320 whole entry): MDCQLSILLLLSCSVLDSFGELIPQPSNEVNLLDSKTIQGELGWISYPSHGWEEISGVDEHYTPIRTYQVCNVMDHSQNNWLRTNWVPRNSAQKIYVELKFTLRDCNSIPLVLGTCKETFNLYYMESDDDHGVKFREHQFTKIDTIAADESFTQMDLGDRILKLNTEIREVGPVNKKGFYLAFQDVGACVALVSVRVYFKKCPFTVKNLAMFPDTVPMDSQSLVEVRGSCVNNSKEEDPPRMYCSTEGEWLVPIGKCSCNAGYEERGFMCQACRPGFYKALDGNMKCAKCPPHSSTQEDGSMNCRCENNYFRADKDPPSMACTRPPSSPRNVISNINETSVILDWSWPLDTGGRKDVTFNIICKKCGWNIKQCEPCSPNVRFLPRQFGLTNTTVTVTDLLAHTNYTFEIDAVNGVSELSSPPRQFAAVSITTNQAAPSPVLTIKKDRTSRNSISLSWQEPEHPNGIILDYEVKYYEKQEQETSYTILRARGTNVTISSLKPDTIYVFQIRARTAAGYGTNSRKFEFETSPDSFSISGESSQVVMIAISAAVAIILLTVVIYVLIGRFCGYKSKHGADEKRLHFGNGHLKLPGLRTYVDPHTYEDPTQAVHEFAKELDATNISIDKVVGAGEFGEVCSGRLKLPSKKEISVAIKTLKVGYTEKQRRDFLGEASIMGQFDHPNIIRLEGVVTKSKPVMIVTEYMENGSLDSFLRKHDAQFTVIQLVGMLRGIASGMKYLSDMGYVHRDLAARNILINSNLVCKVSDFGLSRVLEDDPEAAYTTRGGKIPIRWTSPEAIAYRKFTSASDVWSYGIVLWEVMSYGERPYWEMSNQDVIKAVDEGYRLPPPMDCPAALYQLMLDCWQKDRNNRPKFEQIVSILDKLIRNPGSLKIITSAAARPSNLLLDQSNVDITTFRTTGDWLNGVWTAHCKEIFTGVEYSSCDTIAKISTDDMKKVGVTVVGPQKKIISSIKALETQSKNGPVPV
DYRK3, sequence (O43781 whole entry): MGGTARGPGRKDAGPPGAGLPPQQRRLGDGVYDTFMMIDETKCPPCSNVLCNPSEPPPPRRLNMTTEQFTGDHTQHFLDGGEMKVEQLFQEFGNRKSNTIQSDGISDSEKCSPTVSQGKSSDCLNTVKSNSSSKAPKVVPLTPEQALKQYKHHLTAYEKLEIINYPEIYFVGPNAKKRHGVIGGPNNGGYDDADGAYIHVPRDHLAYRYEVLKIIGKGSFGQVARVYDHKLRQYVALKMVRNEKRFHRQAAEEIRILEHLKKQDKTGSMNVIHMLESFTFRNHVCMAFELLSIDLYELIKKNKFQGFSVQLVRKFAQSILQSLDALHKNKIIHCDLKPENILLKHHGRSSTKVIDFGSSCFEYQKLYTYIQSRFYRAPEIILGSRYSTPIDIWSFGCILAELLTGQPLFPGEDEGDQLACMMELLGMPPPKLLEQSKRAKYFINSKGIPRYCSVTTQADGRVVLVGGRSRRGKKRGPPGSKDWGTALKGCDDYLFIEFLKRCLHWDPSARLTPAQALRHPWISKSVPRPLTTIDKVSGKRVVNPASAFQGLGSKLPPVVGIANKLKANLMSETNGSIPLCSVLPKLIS
BRSK1, sequence (Q8TDC3 whole entry): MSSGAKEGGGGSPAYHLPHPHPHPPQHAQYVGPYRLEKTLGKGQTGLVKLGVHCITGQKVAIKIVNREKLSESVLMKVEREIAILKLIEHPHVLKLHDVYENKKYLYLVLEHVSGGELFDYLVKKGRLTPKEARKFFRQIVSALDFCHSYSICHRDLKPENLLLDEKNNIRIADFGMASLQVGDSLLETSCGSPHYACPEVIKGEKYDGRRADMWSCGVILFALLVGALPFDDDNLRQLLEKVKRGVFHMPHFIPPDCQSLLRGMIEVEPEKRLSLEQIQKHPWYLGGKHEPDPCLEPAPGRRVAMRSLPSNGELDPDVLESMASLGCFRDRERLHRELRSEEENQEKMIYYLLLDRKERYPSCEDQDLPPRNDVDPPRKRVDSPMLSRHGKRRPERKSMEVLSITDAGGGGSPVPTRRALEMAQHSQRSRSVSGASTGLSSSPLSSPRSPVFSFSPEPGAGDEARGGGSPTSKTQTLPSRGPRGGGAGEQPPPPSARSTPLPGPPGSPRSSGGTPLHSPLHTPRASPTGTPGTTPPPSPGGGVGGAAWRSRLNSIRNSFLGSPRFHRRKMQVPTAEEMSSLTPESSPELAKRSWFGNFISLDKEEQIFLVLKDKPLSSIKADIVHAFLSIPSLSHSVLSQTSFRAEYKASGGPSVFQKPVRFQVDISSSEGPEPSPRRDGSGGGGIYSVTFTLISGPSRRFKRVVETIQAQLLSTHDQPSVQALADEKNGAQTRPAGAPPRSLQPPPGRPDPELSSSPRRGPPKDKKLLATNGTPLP
RAF1, sequence (P04049 whole entry): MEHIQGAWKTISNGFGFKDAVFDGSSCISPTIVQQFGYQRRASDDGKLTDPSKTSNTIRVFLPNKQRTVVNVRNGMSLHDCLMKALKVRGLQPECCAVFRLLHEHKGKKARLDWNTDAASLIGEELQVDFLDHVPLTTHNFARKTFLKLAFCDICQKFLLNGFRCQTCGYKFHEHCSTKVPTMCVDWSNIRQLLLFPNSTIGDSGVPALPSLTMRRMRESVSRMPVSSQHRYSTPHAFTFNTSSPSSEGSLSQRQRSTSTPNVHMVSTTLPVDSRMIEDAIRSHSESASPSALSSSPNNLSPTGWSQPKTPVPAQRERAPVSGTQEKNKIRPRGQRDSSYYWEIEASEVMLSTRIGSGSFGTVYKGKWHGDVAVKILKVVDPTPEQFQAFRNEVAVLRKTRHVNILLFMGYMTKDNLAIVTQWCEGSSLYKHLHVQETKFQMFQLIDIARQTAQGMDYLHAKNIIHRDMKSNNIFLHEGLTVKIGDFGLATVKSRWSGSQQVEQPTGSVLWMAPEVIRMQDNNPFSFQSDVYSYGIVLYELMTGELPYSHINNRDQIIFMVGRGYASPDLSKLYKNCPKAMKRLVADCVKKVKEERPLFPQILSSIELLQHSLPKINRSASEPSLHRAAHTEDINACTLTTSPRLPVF

COc1cc(N2CCN(C)CC2)c(C)cc1Nc1ncc(Br)c(Nc2cccnc2N(C)C)n1 [TP-5801]
remaining activity at 0.3 µM (MAK; [1]): 98.4% | remaining activity at 0.3 µM (MAK; [2]): 94.1% | remaining activity at 0.3 µM (PKN1/PRK1; [1]): 91.8% | remaining activity at 0.3 µM (PKN1/PRK1; [2]): 90.3% | remaining activity at 0.3 µM (MYO3A; [1]): 69.8% | remaining activity at 0.3 µM (MYO3A; [2]): 66.3% | remaining activity at 0.3 µM (FER; [1]): 11.7% | remaining activity at 0.3 µM (FER; [2]): 11.4% | remaining activity at 0.3 µM (EPHB1; [1]): 90.7% | remaining activity at 0.3 µM (EPHB1; [2]): 89% | remaining activity at 0.3 µM (DYRK3; [1]): 126% | remaining activity at 0.3 µM (DYRK3; [2]): 124% | remaining activity at 0.3 µM (NEK11; [1]): 99.3% | remaining activity at 0.3 µM (NEK11; [2]): 94.5% | remaining activity at 0.3 µM (GSK3a; [1]): 97.1% | remaining activity at 0.3 µM (GSK3a; [2]): 95.8% | remaining activity at 0.3 µM (WNK3; [1]): 87.5% | remaining activity at 0.3 µM (WNK3; [2]): 86.5% | remaining activity at 0.3 µM (CDK6/cyclin D1; [1]): 88.2% | remaining activity at 0.3 µM (CDK6/cyclin D1; [2]): 87.5% | remaining activity at 0.3 µM (STK22D/TSSK1; [1]): 10.4% | remaining activity at 0.3 µM (STK22D/TSSK1; [2]): 8.14% | remaining activity at 0.3 µM (BRSK1; [1]): 101% | remaining activity at 0.3 µM (BRSK1; [2]): 95.8% | remaining activity at 0.3 µM (EPHA3; [1]): 103% | remaining activity at 0.3 µM (EPHA3; [2]): 97.5% | remaining activity at 0.3 µM (MARK3; [1]): 95.4% | remaining activity at 0.3 µM (MARK3; [2]): 91.7% | remaining activity at 0.3 µM (MAPKAPK3; [1]): 104% | remaining activity at 0.3 µM (MAPKAPK3; [2]): 103% | remaining activity at 0.3 µM (CDK2/cyclin A; [1]): 90.8% | remaining activity at 0.3 µM (CDK2/cyclin A; [2]): 87.6% | remaining activity at 0.3 µM (RAF1; [1]): 90.8% | remaining activity at 0.3 µM (RAF1; [2]): 90.2% | remaining activity at 0.3 µM (NEK1; [1]): 105% | remaining activity at 0.3 µM (NEK1; [2]): 104% | remaining activity at 0.3 µM (NEK9; [1]): 69.6% | remaining activity at 0.3 µM (NEK9; [2]): 68.6% | remaining activity at 0.3 µM (AKT1): 105%
